According to patent US20250170096A1, “OXPHOS INHIBITORS FOR USE IN TREATING CANCER” (ImmunoMet Therapeutics, Inc., priority 2022, published 2025):

What was measured:
OXPHOS = experiment: Pre- and post-treatment biopsies of patients receiving cancer therapies; assay type: in vivo; details: for Effect of therapy on OXPHOS, post-treatment versus pre-treatment biopsies: across cancers, named as the most significant therapies
From the text: Biopsies were collected from subjects undergoing treatment for cancer (FIG. 1A).

[1] = test system: Patient derived xenograft cells; experiment: Growth of patient derived xenograft cells treated in vitro; assay type: cell-based; details: in vitro exposure of patient-derived xenograft cells to gemcitabine; FIG. 2
Description: Patient derived xenograft cells were treated with the compound of Formula 1, Gemcitabine (Gem), or the compound of Formula 1 and gemcitabine together (FIG. 2). Cells treated with both Gem and Formula 1 grew slower than cells treated with Formula 1 or Gem alone.

SMILES: N#Cc1ccc(C(c2ccc(C#N)cc2)n2cncn2)cc1 [letrozole]
- Effect of therapy on OXPHOS, post-treatment versus pre-treatment biopsies (OXPHOS): increase OXPHOS
- OXPHOS following treatment (OXPHOS; breast cancer, FIG. 1E): increase in OXPHOS

SMILES: C[C@]12CC[C@@H]3c4ccc(O)cc4C[C@@H](CCCCCCCCC[S+]([O-])CCCC(F)(F)C(F)(F)F)[C@H]3[C@@H]1CC[C@@H]2O (some centres unmarked) [fulvestrant]
- Effect of therapy on OXPHOS, post-treatment versus pre-treatment biopsies (OXPHOS): increase OXPHOS
- OXPHOS following treatment (OXPHOS; breast cancer, FIG. 1E): increase in OXPHOS

SMILES: CCNC(=O)[C@@H]1CCCN1C(=O)[C@H](CCCNC(=N)N)NC(=O)[C@H](CC(C)C)NC(=O)[C@@H](CC(C)C)NC(=O)[C@H](Cc1ccc(O)cc1)NC(=O)[C@H](CO)NC(=O)[C@H](Cc1c[nH]c2ccccc12)NC(=O)[C@H](Cc1c[nH]cn1)NC(=O)[C@@H]1CCC(=O)N1 [leuprolide]
- Effect of therapy on OXPHOS, post-treatment versus pre-treatment biopsies (OXPHOS): increase OXPHOS
- OXPHOS following treatment (OXPHOS; breast cancer and prostate cancer, FIG. 1C): increase in OXPHOS

SMILES: CC(=O)O[C@H]1C(=O)[C@@]2(C)[C@H]([C@H](OC(=O)c3ccccc3)[C@]3(O)C[C@H](OC(=O)[C@H](O)[C@@H](NC(=O)c4ccccc4)c4ccccc4)C(C)=C1C3(C)C)[C@]1(OC(C)=O)CO[C@@H]1C[C@@H]2O [paclitaxel]
- Effect of therapy on OXPHOS, post-treatment versus pre-treatment biopsies (OXPHOS): increase OXPHOS
- OXPHOS following treatment (OXPHOS; breast cancer, endometrial cancer, NSCLC, ovarian cancer, FIG. 1I): increase in OXPHOS

SMILES: N.N.O=C([O-])C1(C(=O)[O-])CCC1.[Pt+2] [carboplatin]
- Effect of therapy on OXPHOS, post-treatment versus pre-treatment biopsies (OXPHOS): increase OXPHOS
- OXPHOS following treatment (OXPHOS; breast cancer, endometrial cancer, NSCLC, ovarian cancer, FIG. 1G): increase in OXPHOS

SMILES: Nc1ccn([C@@H]2O[C@H](CO)[C@@H](O)C2(F)F)c(=O)n1 [gemcitabine, Gemcitabine]
- Sensitization of tumor cells to the compound of Formula 1 [1]: sensitizes tumor cells to the compound of Formula 1

SMILES: CNC(=O)c1ccc(N2C(=S)N(c3ccc(C#N)c(C(F)(F)F)c3)C(=O)C2(C)C)cc1F [enzalutamide]
- Effect of therapy on OXPHOS, post-treatment versus pre-treatment biopsies (OXPHOS): increase OXPHOS
- OXPHOS following treatment (OXPHOS; prostate cancer, FIG. 1D): increase in OXPHOS

SMILES: O=P1(N(CCCl)CCCl)NCCCO1 (centres unmarked) [cyclophosphamide]
- Effect of therapy on OXPHOS, post-treatment versus pre-treatment biopsies (OXPHOS): increase OXPHOS
- OXPHOS following treatment (OXPHOS; breast cancer and sarcoma, FIG. 1F): increase in OXPHOS

SMILES: COc1cccc2c1C(=O)c1c(O)c3c(c(O)c1C2=O)C[C@@](O)(C(=O)CO)C[C@@H]3O[C@H]1C[C@H](N)[C@H](O)[C@H](C)O1 [doxorubicin]
- Effect of therapy on OXPHOS, post-treatment versus pre-treatment biopsies (OXPHOS): increase OXPHOS
- OXPHOS following treatment (OXPHOS; bladder cancer, breast cancer, sarcoma, FIG. 1H): increase in OXPHOS
